Laboratory results published in US12538924B2, “Pesticidally active heterocyclic derivatives with sulfur containing substituents” (SYNGENTA CROP PROTECTION AG, priority 2019, dated 2026).

Assays:
Format in all cases: in vivo
[1] = test system: Euschistus heros (Neotropical Brown Stink Bug); experiment: Euschistus heros (Neotropical Brown Stink Bug), sprayed soybean leaves; conditions: 120 h, application rate of 200 ppm, N2 nymphs on sprayed soybean leaves, 5 days after infestation, read-out: effect in at least one of the two categories (mortality or growth inhibition)
Method: Example B3: Euschistus heros (Neotropical Brown Stink Bug)
Soybean leaves on agar in 24-well microtiter plates were sprayed with aqueous test solutions prepared from 10'000 ppm DMSO stock solutions. After drying the leaves were infested with N2 nymphs. The samples were assessed for mortality and growth inhibition in comparison to untreated samples 5 days after infestation.

[2] = test system: Bemisia tabaci (Cotton White Fly); experiment: Bemisia tabaci (Cotton White Fly): Feeding/Contact Activity; conditions: foliar, 144 h, application rate of 200 ppm, adult white flies on sprayed cotton leaf discs, 6 days after incubation
Method: Example B1: Bemisia tabaci (Cotton White Fly): Feeding/Contact Activity
Cotton leaf discs were placed on agar in 24-well microtiter plates and sprayed with aqueous test solutions prepared from 10'000 ppm DMSO stock solutions. After drying the leaf discs were infested with adult white flies. The samples were checked for mortality 6 days after incubation.

[3] = test system: Myzus persicae (Green Peach Aphid); experiment: Myzus persicae (Green Peach Aphid): Systemic Activity; conditions: 144 h, test rate of 24 ppm, roots of infested pea seedlings placed into test solutions, 6 days
Method: Example B7: Myzus persicae (Green Peach Aphid): Systemic Activity
Roots of pea seedlings infested with an aphid population of mixed ages were placed directly into aqueous test solutions prepared from 10'000 DMSO stock solutions. The samples were assessed for mortality 6 days after placing seedlings into test solutions.

[4] = test system: Myzus persicae (Green Peach Aphid); experiment: Myzus persicae (Green Peach Aphid): Feeding/Contact Activity; conditions: foliar, 144 h, application rate of 200 ppm, aphid population of mixed ages on sprayed sunflower leaf discs, 6 days after infestation
Method: Example B6: Myzus persicae (Green Peach Aphid): Feeding/Contact Activity
Sunflower leaf discs were placed onto agar in a 24-well microtiter plate and sprayed with aqueous test solutions prepared from 10'000 ppm DMSO stock solutions. After drying, the leaf discs were infested with an aphid population of mixed ages. The samples were assessed for mortality 6 days after infestation.

[5] = test system: Diabrotica Balteata (Corn Root Worm); experiment: Diabrotica balteata (Corn Root Worm), sprayed maize sprouts; conditions: 96 h, application rate of 200 ppm, L2 larvae on sprayed maize sprouts, 4 days after infestation, read-out: effect in at least one of the two categories (mortality or growth inhibition)
Method: Example B2: Diabrotica Balteata (Corn Root Worm)
Maize sprouts placed onto an agar layer in 24-well microtiter plates were treated with aqueous test solutions prepared from 10'000 ppm DMSO stock solutions by spraying. After drying, the plates were infested with L2 larvae (6 to 10 per well). The samples were assessed for mortality and growth inhibition in comparison to untreated samples 4 days after infestation.

[6] = test system: Nilaparvata lugens (Brown Plant Hopper); experiment: Nilaparvata lugens (Brown Plant Hopper): Igr, Feeding/Contact; conditions: 360 h, application rate of 50 ppm, sprayed rice plants, N3 nymphs, assessed for effect on F1 generation 15 days after the treatment
Method: Example B11: Nilaparvata lugens (Brown Plant Hopper): Igr, Feeding/Contact
Rice plants were treated with the diluted test solutions in a spray chamber. After drying plants were infested with ˜20 N3 nymphs. 7 days after treatment adults were removed and 15 days after the treatment samples were assessed for effect on F1 generation.

[7] = test system: Plutella xylostella (Diamond Back Moth); experiment: Plutella xylostella (Diamond Back Moth), treated artificial diet; conditions: 192 h, application rate of 200 ppm, eggs on treated artificial diet, 8 days after infestation, read-out: effect in at least one of the two categories (mortality or growth inhibition)
Method: Example B5: Plutella xylostella (Diamond Back Moth)
24-well microtiter plates with artificial diet were treated with aqueous test solutions prepared from 10'000 ppm DMSO stock solutions by pipetting. After drying, Plutella eggs were pipetted through a plastic stencil onto a gel blotting paper and the plate was closed with it. The samples were assessed for mortality and growth inhibition in comparison to untreated samples 8 days after infestation.

[8] = test system: Nilaparvata lugens (Brown Plant Hopper); experiment: Nilaparvata lugens (Brown Plant Hopper): Larvicide, Systemic into Water; conditions: 168 h, test rate of 12.5 ppm, rice plants in nutritive solution, N3 nymphs, 7 days after infestation
Method: Example B12: Nilaparvata lugens (Brown Plant Hopper): Larvicide, Systemic into Water
Rice plants cultivated in a nutritive solution were treated with the diluted test solutions into nourishing cultivation system. 1 day after application plants were infested with ˜20 N3 nymphs. 7 days after infestation samples were assessed for mortality and growth regulation.

[9] = test system: Nilaparvata lugens (Brown Plant Hopper); experiment: Nilaparvata lugens (Brown Plant Hopper): Larvicide, Feeding/Contact; conditions: 168 h, application rate of 50 ppm, N3 nymphs on sprayed rice plants, 7 days after the treatment
Method: Example B10: Nilaparvata lugens (Brown Plant Hopper): Larvicide, Feeding/Contact
Rice plants were treated with the diluted test solutions in a spray chamber. After drying plants were infested with ˜20 N3 nymphs. 7 days after the treatment samples were assessed for mortality and growth regulation.

[10] = test system: Spodoptera littoralis (Egyptian Cotton Leaf Worm); experiment: Spodoptera littoralis (Egyptian Cotton Leaf Worm), sprayed cotton leaf discs; conditions: foliar, 72 h, application rate of 200 ppm, L1 larvae on sprayed cotton leaf discs, 3 days after infestation, read-out: control (mortality, anti-feeding effect or growth inhibition)
Method: Example B8: Spodoptera littoralis (Egyptian Cotton Leaf Worm)
Cotton leaf discs were placed onto agar in 24-well microtiter plates and sprayed with aqueous test solutions prepared from 10'000 ppm DMSO stock solutions. After drying the leaf discs were infested with five L1 larvae. The samples were assessed for mortality, anti-feeding effect, and growth inhibition in comparison to untreated samples 3 days after infestation. Control of Spodoptera littoralis by a test sample is given when at least one of the categories mortality, anti-feedant effect, and growth inhibition is higher than the untreated sample.

CCS(=O)(=O)c1cc(C(C)(C)C#N)cnc1N1Cc2cnc(C(F)(F)F)cc2C1=O [Compound P2, 2-[5-ethylsulfonyl-6-[1-oxo-6-(trifluoromethyl)-3H-pyrrolo[3,4-c]pyridin-2-yl]-3-pyridyl]-2-methyl-propanenitrile]
≥ 80%: percent effect (mortality or growth inhibition) at 200 ppm [1] | mortality at 200 ppm [2] | mortality at 24 ppm [3] | mortality at 200 ppm [4] | percent effect (mortality or growth inhibition) at 200 ppm [5] | mortality at 50 ppm [6] | percent effect (mortality or growth inhibition) at 200 ppm [7] | mortality at 12.5 ppm [8] | mortality at 50 ppm [9] | percent control (mortality, anti-feedant effect or growth inhibition) at 200 ppm [10]

CCS(=O)(=O)c1ccc(NC)nc1N1Cc2cnc(C(F)(F)F)cc2C1=O [Compound P4, 2-[3-ethylsulfonyl-6-(methylamino)-2-pyridyl]-6-(trifluoromethyl)-3H-pyrrolo[3,4-c]pyridin-1-one]
≥ 80%: percent effect (mortality or growth inhibition) at 200 ppm [1] | mortality at 24 ppm [3] | mortality at 200 ppm [4] | percent effect (mortality or growth inhibition) at 200 ppm [5] | mortality at 50 ppm [6] | percent effect (mortality or growth inhibition) at 200 ppm [7] | mortality at 12.5 ppm [8] | mortality at 50 ppm [9] | percent control (mortality, anti-feedant effect or growth inhibition) at 200 ppm [10]

CCS(=O)(=O)c1ccc(-n2cncn2)nc1N1Cc2cnc(C(F)(F)F)cc2C1=O [Compound P5, 2-[3-ethylsulfonyl-6-(1,2,4-triazol-1-yl)-2-pyridyl]-6-(trifluoromethyl)-3H-pyrrolo[3,4-c]pyridin-1-one]
≥ 80%: percent effect (mortality or growth inhibition) at 200 ppm [1] | mortality at 200 ppm [2] | mortality at 24 ppm [3] | mortality at 200 ppm [4] | percent effect (mortality or growth inhibition) at 200 ppm [5] | mortality at 50 ppm [6] | percent effect (mortality or growth inhibition) at 200 ppm [7] | mortality at 12.5 ppm [8] | mortality at 50 ppm [9] | percent control (mortality, anti-feedant effect or growth inhibition) at 200 ppm [10]

CCS(=O)(=O)c1ccc(N(C)C(=O)NC)nc1N1Cc2cnc(C(F)(F)F)cc2C1=O [Compound P6, 1-[5-ethylsulfonyl-6-[1-oxo-6-(trifluoromethyl)-3H-pyrrolo[3,4-c]pyridin-2-yl]-2-pyridyl]-1,3-dimethyl-urea]
≥ 80%: percent effect (mortality or growth inhibition) at 200 ppm [1] | mortality at 200 ppm [2] | mortality at 24 ppm [3] | mortality at 200 ppm [4] | percent effect (mortality or growth inhibition) at 200 ppm [5] | percent effect (mortality or growth inhibition) at 200 ppm [7] | mortality at 12.5 ppm [8] | mortality at 50 ppm [9]

CCS(=O)(=O)c1cc(-n2ccc(C(F)(F)F)n2)cnc1N1Cc2cnc(C(F)(F)F)cc2C1=O [Compound P9, 2-[3-ethylsulfonyl-5-[3-(trifluoromethyl)pyrazol-1-yl]-2-pyridyl]-6-(trifluoromethyl)-3H-pyrrolo[3,4-c]pyridin-1-one]
≥ 80%: percent effect (mortality or growth inhibition) at 200 ppm [1] | mortality at 200 ppm [2] | mortality at 200 ppm [4] | percent effect (mortality or growth inhibition) at 200 ppm [5] | mortality at 50 ppm [6] | percent effect (mortality or growth inhibition) at 200 ppm [7] | mortality at 12.5 ppm [8] | percent control (mortality, anti-feedant effect or growth inhibition) at 200 ppm [10]

CCS(=O)(=O)c1cc(C(F)(F)F)cnc1N1Cc2cnc(C(F)(F)F)cc2C1=O [Compound P10, 2-[3-ethylsulfonyl-5-(trifluoromethyl)-2-pyridyl]-6-(trifluoromethyl)-3H-pyrrolo[3,4-c]pyridin-1-one]
≥ 80%: percent effect (mortality or growth inhibition) at 200 ppm [1] | mortality at 200 ppm [2] | mortality at 24 ppm [3] | mortality at 200 ppm [4] | percent effect (mortality or growth inhibition) at 200 ppm [5] | mortality at 50 ppm [6] | percent effect (mortality or growth inhibition) at 200 ppm [7] | mortality at 12.5 ppm [8] | mortality at 50 ppm [9] | percent control (mortality, anti-feedant effect or growth inhibition) at 200 ppm [10]

CCS(=O)(=O)c1cc(C2(C#N)CC2)cnc1N1Cc2ncc(C(F)(F)F)cc2C1=O [Compound P11, 1-[5-ethylsulfonyl-6-[5-oxo-3-(trifluoromethyl)-7H-pyrrolo[3,4-b]pyridin-6-yl]-3-pyridyl]cyclopropanecarbonitrile]
≥ 80%: percent effect (mortality or growth inhibition) at 200 ppm [1] | mortality at 200 ppm [2] | mortality at 24 ppm [3] | mortality at 200 ppm [4] | percent effect (mortality or growth inhibition) at 200 ppm [5] | mortality at 50 ppm [6] | percent effect (mortality or growth inhibition) at 200 ppm [7] | mortality at 12.5 ppm [8] | mortality at 50 ppm [9] | percent control (mortality, anti-feedant effect or growth inhibition) at 200 ppm [10]

CCS(=O)(=O)c1cc(Oc2ccccn2)cnc1N1Cc2cnc(C(F)(F)F)cc2C1=O [Compound P12, 2-[3-ethylsulfonyl-5-(2-pyridyloxy)-2-pyridyl]-6-(trifluoromethyl)-3H-pyrrolo[3,4-c]pyridin-1-one]
≥ 80%: percent effect (mortality or growth inhibition) at 200 ppm [1] | mortality at 24 ppm [3] | mortality at 200 ppm [4] | percent effect (mortality or growth inhibition) at 200 ppm [5] | percent effect (mortality or growth inhibition) at 200 ppm [7] | mortality at 12.5 ppm [8] | percent control (mortality, anti-feedant effect or growth inhibition) at 200 ppm [10]

CCS(=O)(=O)c1cc(-n2ccc(Cl)n2)cnc1N1Cc2cnc(C(F)(F)F)cc2C1=O [Compound P13, 2-[5-(3-chloropyrazol-1-yl)-3-ethylsulfonyl-2-pyridyl]-6-(trifluoromethyl)-3H-pyrrolo[3,4-c]pyridin-1-one]
≥ 80%: percent effect (mortality or growth inhibition) at 200 ppm [1] | mortality at 200 ppm [2] | mortality at 200 ppm [4] | percent effect (mortality or growth inhibition) at 200 ppm [5] | percent effect (mortality or growth inhibition) at 200 ppm [7] | mortality at 12.5 ppm [8] | percent control (mortality, anti-feedant effect or growth inhibition) at 200 ppm [10]

CCS(=O)(=O)c1ccc(N(C)C(=O)C2CC2)nc1N1Cc2cnc(C(F)(F)F)cc2C1=O [Compound P18, N-[5-ethylsulfonyl-6-[1-oxo-6-(trifluoromethyl)-3H-pyrrolo[3,4-c]pyriclin-2-yl]-2-pyridyl]-N-methyl-cyclopropanecarboxamide]
≥ 80%: percent effect (mortality or growth inhibition) at 200 ppm [1] | mortality at 200 ppm [2] | mortality at 24 ppm [3] | mortality at 200 ppm [4] | percent effect (mortality or growth inhibition) at 200 ppm [5] | mortality at 50 ppm [6] | percent effect (mortality or growth inhibition) at 200 ppm [7] | mortality at 12.5 ppm [8] | mortality at 50 ppm [9] | percent control (mortality, anti-feedant effect or growth inhibition) at 200 ppm [10]
